Experimental findings from patent US6399643B1, “Spiroimidazolidine derivatives, their preparation, their use and pharmaceutical preparations formed therefrom” (Aventis Pharma Deutschland GmbH, priority 1999, dated 2002) are described below.

The IC50 is the concentration needed to halve the response being measured. Low values mean inhibition by little substance, high ones a need for much substance.

Where a name gives a salt, the structure may show the parent alone.

T1 sequence (P13612 34-1032): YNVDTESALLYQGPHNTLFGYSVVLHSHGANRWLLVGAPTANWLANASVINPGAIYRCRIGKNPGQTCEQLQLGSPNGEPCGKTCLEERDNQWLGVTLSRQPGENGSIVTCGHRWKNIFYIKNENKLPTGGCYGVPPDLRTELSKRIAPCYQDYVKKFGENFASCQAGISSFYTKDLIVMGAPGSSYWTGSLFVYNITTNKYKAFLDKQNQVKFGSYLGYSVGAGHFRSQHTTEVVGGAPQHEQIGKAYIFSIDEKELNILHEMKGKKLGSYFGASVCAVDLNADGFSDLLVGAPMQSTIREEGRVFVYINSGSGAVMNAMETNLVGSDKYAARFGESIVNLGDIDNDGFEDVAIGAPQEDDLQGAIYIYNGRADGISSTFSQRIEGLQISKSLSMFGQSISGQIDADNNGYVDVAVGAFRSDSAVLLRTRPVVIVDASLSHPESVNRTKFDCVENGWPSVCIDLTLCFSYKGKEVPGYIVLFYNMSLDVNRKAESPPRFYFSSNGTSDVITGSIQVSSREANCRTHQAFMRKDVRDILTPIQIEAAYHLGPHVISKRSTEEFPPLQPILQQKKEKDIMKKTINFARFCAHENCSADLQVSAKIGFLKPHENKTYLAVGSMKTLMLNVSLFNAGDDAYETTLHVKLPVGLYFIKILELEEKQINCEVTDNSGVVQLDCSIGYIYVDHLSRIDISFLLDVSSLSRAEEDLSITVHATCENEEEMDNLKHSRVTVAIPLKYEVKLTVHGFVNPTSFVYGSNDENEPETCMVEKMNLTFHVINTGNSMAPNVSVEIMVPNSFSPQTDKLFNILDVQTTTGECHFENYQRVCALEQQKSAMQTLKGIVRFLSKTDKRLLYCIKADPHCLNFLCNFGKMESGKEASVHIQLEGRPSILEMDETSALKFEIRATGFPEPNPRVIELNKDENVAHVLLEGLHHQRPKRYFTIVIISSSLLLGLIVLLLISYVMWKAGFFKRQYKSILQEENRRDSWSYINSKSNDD
T1 sequence (P05556 21-798): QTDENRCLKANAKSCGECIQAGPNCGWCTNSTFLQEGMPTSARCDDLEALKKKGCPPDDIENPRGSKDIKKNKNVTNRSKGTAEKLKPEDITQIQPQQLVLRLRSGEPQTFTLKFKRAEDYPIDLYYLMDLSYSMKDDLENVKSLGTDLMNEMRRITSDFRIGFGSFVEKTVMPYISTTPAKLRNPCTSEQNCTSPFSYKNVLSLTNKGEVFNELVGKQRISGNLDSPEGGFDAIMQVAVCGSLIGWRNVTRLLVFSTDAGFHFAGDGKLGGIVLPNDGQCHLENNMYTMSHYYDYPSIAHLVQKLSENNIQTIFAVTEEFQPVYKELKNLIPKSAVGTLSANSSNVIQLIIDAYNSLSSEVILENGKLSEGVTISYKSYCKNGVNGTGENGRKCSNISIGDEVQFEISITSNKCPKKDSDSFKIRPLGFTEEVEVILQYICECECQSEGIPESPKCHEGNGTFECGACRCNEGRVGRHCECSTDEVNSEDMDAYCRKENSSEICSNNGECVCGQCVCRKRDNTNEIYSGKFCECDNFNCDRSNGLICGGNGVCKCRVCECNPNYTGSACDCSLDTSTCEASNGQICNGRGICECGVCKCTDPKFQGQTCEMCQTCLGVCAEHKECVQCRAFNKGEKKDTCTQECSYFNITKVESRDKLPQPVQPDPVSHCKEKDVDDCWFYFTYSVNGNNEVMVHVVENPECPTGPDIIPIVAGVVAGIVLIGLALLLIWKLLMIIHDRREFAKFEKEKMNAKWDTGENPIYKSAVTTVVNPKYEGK

This assay has as its target T1, interaction between VCAM-1 and VLA-4 (Homo sapiens, UniProt P05556+P13612).
T1 construct: supplied in their natural form as surface molecules on human U937 cells; host or cells: human U937 cells (VLA-4, endogenous); the partner hVCAM-1(1-3)-IgG was made in house in transfected COS cells (ATCC CRL1651) and used as culture supernatant
The assay can be described thus: U937/VCAM-1 cell adhesion test (adhesion of U937 cells to hVCAM-1(1-3)-IgG). The assay is classed as cell-based. The following applies: inhibition of adhesion of human U937 cells (ATCC CRL 1593) to hVCAM-1(1-3)-IgG. The text has this: A) U937/VCAM-1 Cell Adhesion Test
The test method used for the activity of the compounds of the formula I on the interaction between VCAM-1 and VLA-4 is the assay described below, which is specific for this interaction. The cellular binding components, that is the VLA-4 integrins, are supplied in their natural form as surface molecules on human U937 cells (ATCC CRL 1593), which belong to the leukocytes group. The specific binding components used are genetically engineered recombinant soluble fusion proteins, consisting of the extracytoplasmic domain of human VCAM-1 and the constant region of a human immunoglobulin of the subclass IgG1.
Assay for the Measurement of the Adhesion of U937 Cells (ATCC CRL 1593) to hVCAM-1 (1-3)-IgG
1. Preparation of Human VCAM-1(1-3)-IgG and Human CD4-IgG
A genetic construct for the expression of the extracellular domain of human VCAM-1, combined with the genetic sequence of the heavy chain of human immunoglobulin IgG1 (hinge, CH2 and CH3 regions) (from Brian Seed, Massachusetts General Hospital, Boston, USA; cf. Damle and Aruffo, Proc. Natl. Acad. Sci. USA 1991, 88, 6403), was employed. The soluble fusion protein hVCAM-1(1-3)-IgG contained the three aminoterminal extracellular immunoglobulin-like domains of human VCAM-1 (Damle and Aruffo, Proc. Natl. Acad. Sci. USA 1991, 88, 6403). CD4-IgG (Zettlmeissl et al., DNA and Cell Biology 1990, 9, 347) served as a fusion protein for negative controls. The recombinant proteins were expressed as soluble proteins after DEAE/dextran-mediated DNA transfection in COS cells (ATCC CRL1651) according to standard procedures (Ausubel et al., Current protocols in molecular biology, John Wiley & Sons, Inc., 1994).
2. Assay for the Measurement of the Adhesion of U937 Cells to hVCAM-1(1-3)-IgG
2.1 96-well microtiter test plates (Nunc Maxisorb) were incubated at room temperature for 1 hour with 100 μl/well of a goat-anti-human IgG antibody solution (10 μg/ml in 50 mM tris, pH 9.5). After removal of the antibody solution, washing was carried out once with PBS.
2.2 150 μl/well of a blocking buffer (1% BSA in PBS) were incubated on the plates at room temperature for 0.5 hour. After removal of the blocking buffer, washing was carried out once with PBS.
2.3 100 μl per well of a cell culture supernatant of transfected COS cells were incubated on the plates at room temperature for 1.5 hours. The COS cells were transfected with a plasmid which codes for the three N-terminal immunoglobulin-like domains of VCAM-1, coupled to the Fc portion of human IgG1 (hVCAM-1 (1-3)-IgG). The content of hVCAM-1(1-3)-IgG was about 0.5-1 μg/ml. After removing the culture supernatant, washing was carried out once with PBS.
2.4 The plates were incubated at room temperature for 20 minutes with 100 μl/well of Fc receptor blocking buffer (1 mg/ml of γ-globulin, 100 mM NaCl, 100 μM MgCl2, 100 μM MnCl2, 100 μM CaCl2, 1 mg/ml of BSA in 50 mM HEPES, pH 7.5). After removal of the Fc receptor blocking buffer, washing was carried out once with PBS.
2.5 20 μl of binding buffer (100 μM NaCl, 100 μM MgCl2, 100 μM MnCl2, 100 μM CaCl2, 1 mg/ml of BSA in 50 mM HEPES, pH 7.5) were initially introduced, and the substances to be tested were added in 10 μl of binding buffer and incubated for 20 minutes. The controls used were antibodies against VCAM-1(BBT, No. BBA6) and against VLA-4(Immunotech, No. 0764).
2.6 U937 cells were incubated in Fc receptor blocking buffer for 20 minutes and then pipetted in at a concentration of 1×10^6/ml and in an amount of 100 μl per well ([…]).
2.7 The plates were slowly immersed at an angle of 45° in stop buffer (100 mM NaCl, 100 μM MgCl2, 100 μM MnCl2, 100 μM CaCl2 in 25 mM Tris, pH 7.5) and shaken off. The process was repeated.
2.8 50 μl/well of a dye solution ([…] of Hoechst Dye 33258, 4% formaldehyde, 0.5% Triton X-100 in PBS) were then incubated on the plates for 15 minutes. […]
In turn, `COc1ccc([C@H](CC(=O)O)NC(=O)[C@H](CC(C)C)N2C(=O)N(Cc3ccc(NC(=O)Nc4ccccc4)cc3)C3(CCCCC3)C2=O)c(OC)c1` [Example 19, (S)-3-((S)-2-(4,4-Pentamethylene-3-(4-(3-phenylureido)benzyl)-2,5-dioxoimidazolidin-1-yl)-2-(2-methylpropyl)acetylamino)-3-(2,4-dimethoxyphenyl)propionic acid tromethamine salt] returned an IC50 of 3 nM.
With `Cc1ccccc1NC(=O)Nc1ccc(CN2C(=O)N([C@@H](CC(C)C)C(=O)N[C@H](C)CC(=O)O)C(=O)C23CCCCC3)cc1` [Example 24, (R)-3-((S)-2-(4,4-Pentamethylene-3-(4-(3-(2-methylphenyl)ureido)benzyl)-2,5-dioxoimidazolidin-1-yl)-2-(2-methylpropyl)acetylamino)-3-methylpropionic acid tromethamine salt], half-maximal inhibition (IC50) required 1.7 nM.
Molecule `CC(C)C[C@@H](C(=O)N[C@H](C)CC(=O)O)N1C(=O)N(Cc2ccc(NC(=O)Nc3ccccc3)cc2)C2(CCCCC2)C1=O` [Example 3, (R)-3-((S)-2-(4,4-Pentamethylene-3-(4-(3-phenylureido)benzyl)-2,5-dioxoimidazolidin-1-yl)-2-(2-methylpropyl)acetylamino)-3-methylpropionic acid] registered an IC50 of 17 nM.
With `Cc1ccccc1NC(=O)Nc1ccc(CN2C(=O)N([C@@H](CC(C)C)C(=O)N[C@@H](CC(=O)O)c3ccccc3)C(=O)C23CCCCC3)cc1` [Example 23, (S)-3-((S)-2-(4,4-Pentamethylene-3-(4-(3-(2-methylphenyl)ureido)benzyl)-2,5-dioxoimidazolidin-1-yl)-2-(2-methylpropyl)acetylamino)-3-phenylpropionic acid tromethamine salt], the IC50 was 5.5 nM.
In turn, `COc1ccc([C@H](CC(=O)O)NC(=O)[C@H](CC(C)C)N2C(=O)N(Cc3ccc(NC(=O)Nc4ccccc4)cc3)C3(CCCCC3)C2=O)c(OC)c1` [Example 18, (S)-3-((S)-2-(4,4-Pentamethylene-3-(4-(3-phenylureido)benzyl)-2,5-dioxoimidazolidin-1-yl)-2-(2-methylpropyl)acetylamino)-3-(2,4-dimethoxyphenyl)propionic acid] came in with an IC50 of 2.4 nM.
Molecule `COc1ccc([C@H](CC(=O)O)NC(=O)[C@H](CC2CC2)N2C(=O)N(Cc3ccc(NC(=O)Nc4ccccc4C)cc3)C3(CCCCC3)C2=O)c(OC)c1` [Example 41, (S)-3-((S)-2-(4,4-Pentamethylene-3-(4-(3-(2-methylphenyl)ureido)benzyl)-2,5-dioxoimidazolidin-1-yl)-2-cyclopropylmethylacetylamino)-3-(2,4-dimethoxyphenyl)propionic acid sodium salt] gave an IC50 of 2.3 nM.
As to `CC(C)C[C@H](CC(=O)O)NC(=O)[C@H](CC(C)C)N1C(=O)N(Cc2ccc(NC(=O)Nc3ccccc3)cc2)C2(CCCCC2)C1=O` [Example 4, (R)-3-((S)-2-(4,4-Pentamethylene-3-(4-(3-phenylureido)benzyl)-2,5-dioxoimidazolidin-1-yl)-2-(2-methylpropyl)acetylamino)-3-(2-methylpropyl)propionic acid], inhibition was half-maximal at 85.4 nM (IC50).
As to `COc1ccc([C@H](CC(=O)O)NC(=O)[C@H](CC(C)C)N2C(=O)N(Cc3ccc(NC(=O)Nc4ccccc4C)cc3)C3(CCCCC3)C2=O)c(OC)c1` [Example 28, (S)-3-((S)-2-(4,4-Pentamethylene-3-(4-(3-(2-methyphenyl)ureido)benzyl)-2,5-dioxoimidazolidin-1-yl)-2-(2-methylpropyl)acetylamino)-3-(2,4-dimethoxyphenyl)propionic acid], 2.1 nM corresponded to half-maximal inhibition (IC50).
For `CC(C)C[C@@H](C(=O)N[C@@H](CC(=O)O)c1ccccc1)N1C(=O)N(Cc2ccc(NC(=O)Nc3ccccc3)cc2)C2(CCCCC2)C1=O` [Example 2, (S)-3-((S)-2-(4,4-Pentamethylene-3-(4-(3-phenylureido)benzyl)-2,5-dioxoimidazolidin-1-yl)-2-(2-methylpropyl)acetylamino)-3-phenylpropionic acid tromethamine salt], the IC50 is 4.5 nM.
The molecule `COc1ccc([C@H](CC(=O)O)NC(=O)[C@H](CC(C)C)N2C(=O)N(Cc3ccc(NC(=O)Nc4ccccc4)cc3)C3(CCCCC3)C2=O)cc1OC` [Example 20, (S)-3-((S)-2-(4,4-Pentamethylene-3-(4-(3-phenylureido)benzyl)-2,5-dioxoimidazolidin-1-yl)-2-(2-methylpropyl)acetylamino)-3-(3,4-dimethoxyphenyl)propionic acid] had a half-inhibitory concentration (IC50) of 1.6 nM.
With `COc1ccc([C@H](CC(=O)O)NC(=O)[C@H](CC(C)C)N2C(=O)N(Cc3ccc(NC(=O)Nc4ccccc4C)cc3)C3(CCCCC3)C2=O)cc1` [Example 27, (S)-3-((S)-2-(4,4-Pentamethylene-3-(4-(3-(2-methylphenyl)ureido)benzyl)-2,5-dioxoimidazolidin-1-yl)-2-(2-methylpropyl)acetylamino)-3-(4-methoxyphenyl)propionic acid tromethamine salt] the figure was 3.4 nM; with `COc1ccc([C@H](CC(=O)O)NC(=O)[C@H](CC2CC2)N2C(=O)N(Cc3ccc(NC(=O)Nc4ccccc4C)cc3)C3(CCCCC3)C2=O)cc1OC` [Example 39, (S)-3-((S)-2-(4,4-Pentamethylene-3-(4-(3-(2-methylphenyl)ureido)benzyl)-2,5-dioxoimidazolidin-1-yl)-2-cyclopropylmethylacetylamino)-3-(3,4-dimethoxyphenyl)propionic acid], 0.8 nM.
`Cc1ccccc1NC(=O)Nc1ccc(CN2C(=O)N([C@@H](CC(C)C)C(=O)N[C@@H](CC(=O)O)c3ccc4c(c3)OCCO4)C(=O)C23CCCCC3)cc1` [Example 35, (S)-3-((S)-2-(4,4-Pentamethylene-3-(4-(3-(2-methylphenyl)ureido)benzyl)-2,5-dioxoimidazolidin-1-yl)-2-(2-methylpropyl)acetylamino)-3-(3,4-ethylenedioxyphenyl)propionic acid sodium salt]: 3.4 nM corresponded to half-maximal inhibition (IC50).
With `COc1ccc([C@H](CC(=O)O)NC(=O)[C@H](CC(C)C)N2C(=O)N(Cc3ccc(NC(=O)Nc4ccccc4)cc3)C3(CCCCC3)C2=O)cc1` [Example 16, (S)-3-((S)-2-(4,4-Pentamethylene-3-(4-(3-phenylureido)benzyl)-2,5-dioxoimidazolidin-1-yl)-2-(2-methylpropyl)acetylamino)-3-(4-methoxyphenyl)propionic acid], the midpoint of inhibition, the IC50, lay at 4 nM.
With `COc1ccc([C@H](CC(=O)O)NC(=O)[C@H](CC(C)C)N2C(=O)N(Cc3ccc(NC(=O)Nc4ccccc4C)cc3)C3(CCCCC3)C2=O)c(OC)c1` [Example 30, (S)-3-((S)-2-(4,4-Pentamethylene-3-(4-(3-(2-methylphenyl)ureido)benzyl)-2,5-dioxoimidazolidin-1-yl)-2-(2-methylpropyl)acetylamino)-3-(2,4-dimethoxyphenyl)propionic acid sodium salt], 3.6 nM corresponded to half-maximal inhibition (IC50).
